Values joined by “and” are separate entries in the source; they are usually repeats but may differ in a detail not shown here. Equal entries are not always repeated. Where two headings read alike, the source gives them in different places. Marks after values point to notes of the source that are not given here.
Assays:
hyperlipidemic patients = experiment: Clinical study: effect of the hypolipidemic agent on elevated triglyceride levels in blood; type: in vivo, human
Description: Effect (in vivo) of the Hypolipidemic Agent on Elevated Triglyceride Levels in Blood-Clinical Study Patients attending the Endocrinology and Metabolism outpatient department of […] Medical College Hospital were included in the study. Patients with baseline serum total cholesterol above 200 mg/dl and/or serum triglycerides above 200 mg/dl after 6-12 weeks of low fat diet, exercise and weight reduction program, were included in the study. The compliance of the subjects for diet, weight and exercise schedules were monitored throughout the study. The number of patients recruited for the study were 37, including a child. There were […] in the age group of 30 to 62 years. Of the 37 patients, 23 patients were diabetic (type two diabetes) and 16 patients had essential hypertension, and two women and nine men were obese, the others being of normal weight. Two men and one person dropped out of the study, due to unknown causes. Of the original patients, 34 completed the study as per the protocol. In the initial visit, patient's height in centimeters, and weight in kilograms were recorded. After noting detailed history, physical examinations were performed on each patient. Informed consent was taken from all patients and, in the case of minors, from their parents. Blood samples were drawn for routine hematology, fasting and post prandial plasma glucose, blood urea, serum creatinine, liver function test and lipid profile. At each visit, the patient's weight and diet and exercise compliance was checked and blood samples for hematology and lipid profile were drawn. The patients were given 20 mg of Vanillin in gelatin capsule once a day before the main meal. At each visit, pill count was done to check the compliance of the drug intake. The data were recorded in the case record form and computer by authorized persons. The data were analyzed statistically.

hyperlipidemic rats = experiment: Dose response spectrum of the hypolipidemic agent, animal assay on hyperlipidemic diet; type: in vivo, Wistar male rats; set-up: Serum triglycerides, TOTAL / Serum triglycerides, LDL-VLDL / Serum triglycerides, HDL: unit not given here; conditions: six weeks; for Hypocholesterolemic effect, lowering: mainly LDL-VLDL fraction
Excerpt: Dose Response Spectrum of the Hypolipidemic Agent—Animal Assay: The response in terms of the lowering of triglyceride component in the majority of the human cases were encouraging. This initiated a dose response test in young adult rats to determine a standard response curve. Such a curve would help in choosing the proper doses for further clinical trials and determine the adequacy and nature of the response. The tests were done on groups of young Wistar male rats, statistically distributed on the basis of body weight (125±5 g) into six groups, including a control group. […] The basal hyperlipidemic diet contained (g/100): casein 15, corn starch 40, cane sugar 10, hydrogenated fat 25, refined peanut oil 5, NRC vitamin mixture (choline free) 1, and salt mixture (Bernhardt-Tomarrelli modified) 4. Fat soluble vitamins at desired concentrations were added to the peanut oil. Vanillin was incorporated into the hyperlipidemic diet in replacement of starch at the desired levels. The duration of the test feeding period was six weeks. At the end of the experimental period, the rats were sacrificed and lipid analysis was done using standard procedures.

rats [1] = conditions: cited from earlier work
rats [2] = conditions: cited from earlier work; remark: listed apart in the source
[3] = man; cited from earlier work
guinea pigs = conditions: guinea pig, in vivo; cited from earlier work
rabbits = conditions: rabbit, in vivo; cited from earlier work
[4] = 20 mg/day oral, throughout the study
[5] = mean of 10 patients, baseline mean 425.2, p < 0.0005 vs TG1, 20 mg/day

COc1cc(C=O)ccc1O [Vanillin, 4-hydroxy-3-methoxybenzaldehyde]
Change in serum HDL level (hyperlipidemic patients; 20 mg/day): no significant change | Adverse effects in patients (hyperlipidemic patients; [4]): No adverse effects | Routine biochemistry, hematology and liver function tests (hyperlipidemic patients; [4]): did not show any significant change | DELTA = (TG1 − TG3) (hyperlipidemic patients; individual patient, before treatment minus 6 weeks after treatment, 20 mg/day): 243 mg/dL and 199 mg/dL and 218 mg/dL and 120 mg/dL and 168 mg/dL and 236 mg/dL and 133 mg/dL and 250 mg/dL and 158 mg/dL and 224 mg/dL | (DELTA/TG1) ×100 (hyperlipidemic patients; individual patient, reduction of serum triglyceride at 6 weeks, 20 mg/day): 41.68% and 52.15% and 53.96% and 42.25% and 30.65% and 49.58% and 43.18% and 58.14% and 47.02% and 44.44% | DELTA = (TG1 − TG3), mean (hyperlipidemic patients; mean of 10 patients, 20 mg/day): 194.9 mg/dL | (DELTA/TG1) ×100, mean (hyperlipidemic patients; mean of 10 patients, 6 weeks, 20 mg/day): 46.34% | TG2: fasting serum triglyceride level 3 weeks after treatment, mean (hyperlipidemic patients; [5]): 306.0** mg/dl | TG3: fasting serum triglyceride level 6 weeks after treatment, mean (hyperlipidemic patients; [5]): 230.3 mg/dL | Change from baseline total cholesterol, mean (hyperlipidemic patients; mean, 20 mg/day): 74.5 mg/dL | Reduction of serum triglyceride (hyperlipidemic patients; patient, about six weeks, 20 mg/day): up to 75% | Serum triglyceride after treatment (hyperlipidemic patients; patient, initial value 3078 mg/dl, about six weeks, 20 mg/day): 786 mg/dL | Liver total lipids (hyperlipidemic rats; 0.125% and 0.25% in diet): significantly higher | Triglycerides in the liver (hyperlipidemic rats; 0.125% and 0.25% in diet): higher accumulation | Decrease in HDL cholesterol (hyperlipidemic rats; 0.125% in diet): 16% | Hypocholesterolemic effect, lowering (hyperlipidemic rats; 0.125% in diet): 18% | Serum triglycerides, HDL (hyperlipidemic rats; 0.125% in hyperlipidemic diet): 69.3 ± 7.0 | Serum triglycerides, LDL-VLDL (hyperlipidemic rats; 0.125% in hyperlipidemic diet): 128.3 ± 4.1 | Serum triglycerides, TOTAL (hyperlipidemic rats; 0.125% in hyperlipidemic diet): 197.6 ± 9.74 | Hypocholesterolemic effect, lowering (hyperlipidemic rats; 0.25% in diet): 12% | Serum triglycerides, HDL (hyperlipidemic rats; 0.25% in hyperlipidemic diet): 74.3 ± 10.4 | Serum triglycerides, LDL-VLDL (hyperlipidemic rats; 0.25% in hyperlipidemic diet): 147.1 ± 6.5 | Serum triglycerides, TOTAL (hyperlipidemic rats; 0.25% in hyperlipidemic diet): 221.4 ± 16.5 | Decrease in serum phospholipids (hyperlipidemic rats; 0.5% in diet): 19% | Serum triglycerides, HDL (hyperlipidemic rats; 0.5% in hyperlipidemic diet): 29.8 ± 6.5 | Serum triglycerides, LDL-VLDL (hyperlipidemic rats; 0.5% in hyperlipidemic diet): 127.0 ± 4.3 | Serum triglycerides, TOTAL (hyperlipidemic rats; 0.5% in hyperlipidemic diet): 156.8 ± 10.4 | Adipose fat (hyperlipidemic rats; 1% and 5% levels in diet): lowered | Decrease in serum phospholipids (hyperlipidemic rats; 1.0% in diet): 14% | Serum triglycerides, HDL (hyperlipidemic rats; 1.0% in hyperlipidemic diet): 41.7 ± 5.5 | Serum triglycerides, LDL-VLDL (hyperlipidemic rats; 1.0% in hyperlipidemic diet): 104.8 ± 4.9 | Serum triglycerides, TOTAL (hyperlipidemic rats; 1.0% in hyperlipidemic diet): 146.5 ± 9.33 | Serum triglycerides, HDL (hyperlipidemic rats; 5.0% in hyperlipidemic diet): 38.6 ± 4.8 | Serum triglycerides, LDL-VLDL (hyperlipidemic rats; 5.0% in hyperlipidemic diet): 141.8 ± 10.3 | Serum triglycerides, TOTAL (hyperlipidemic rats; 5.0% in hyperlipidemic diet): 180.4 ± 3.69 | Liver weights (hyperlipidemic rats; any of the levels tested (0.125-5% in diet)): not affected | Reduction in serum triglycerides (rats [1]; 0.15 mg % vanillin): 24% | Body and organ weights, hematology, and histopathology, test versus control rats (rats [2]; 1.0% of diet 16 weeks, 0.1% 27 to 28 weeks, 2.0% and 5.0% one year, 0.5%, 1.0% and 2.0% two years): no significant differences | Adverse effects (rats [2]; rats, 5% diet for 90 days (earlier study)): growth depression and organ enlargement | Daily intake equal to the highest level without adverse effect (rats [2]; rats, 5% in diet): ~2500 mg/kg | Highest level consumed without adverse effect (rats [2]; rats, level in diet): 5% | Adverse effects (rats [2]; rats, oral, once a day 20 mg/kg/d for 126 days): no adverse effects | Adverse effects (rats [2]; rats, oral, twice per week 300 mg/kg/dose for 14 weeks): no adverse effects | Highest no-adverse-effect intake relative to estimated per capita daily intake (rats [2]; versus a 60-kg person): ~14,000 times | Metabolism and excretion [3]: converted to vanillic acid in the liver and is excreted in the urine | Acute oral LD50 (guinea pigs): 1400 mg/kg | Acute oral LD50 (rabbits): 3000 mg/kg

COc1cc(CNC(=O)CCCC/C=C/C(C)C)ccc1O [capsaicin, reference compound]
Reduction in serum triglycerides (rats [1]; 0.3 mg % capsaicin): 13%
